Measured values published in patent publication US8952024B2, “Herbicidal pyrimidone derivatives” (E I du Pont de Nemours and Company, priority 2009, dated 2015).

Legend:
Format in all cases: in vivo
[1] = tested on: large crabgrass (Digitaria sanguinalis); test: Test A pre-/postemergence plant response
Description: (§1) Seeds of barnyardgrass (Echinochloa crus-galli), large crabgrass (Digitaria sanguinalis), giant foxtail (Setaria faberii), morningglory (Ipomoea spp.), pigweed (Amaranthus retroflexus), velvetleaf (Abutilon theophrasti), wheat (Triticum aestivum) and corn (Zea mays) were planted into a blend of loam soil and sand and treated preemergence with a directed soil spray using test chemicals formulated in a non-phytotoxic solvent mixture which included a surfactant. At the same time these species were also treated with postemergence applications of test compounds formulated in the same manner.
(§2) Plants ranged in height from two to ten cm and were in the one- to two-leaf stage for the postemergence treatment. Treated plants and untreated controls were maintained in a greenhouse for approximately ten days, after which time all treated plants were compared to untreated controls and visually evaluated for injury. Plant response ratings, summarized in Table A, are based on a 0 to 100 scale where 0 is no effect and 100 is complete control. A dash (-) response means no test result.

[2] = tested on: velvetleaf (Abutilon theophrasti); test: Test A pre-/postemergence plant response
Description: as §1, §2

[3] = tested on: morningglory (Ipomoea spp.); test: Test A pre-/postemergence plant response
Description: as §1, §2

[4] = tested on: corn (Zea mays); test: Test A pre-/postemergence plant response
Description: as §1, §2

[5] = tested on: giant foxtail (Setaria faberii); test: Test A pre-/postemergence plant response
Description: as §1, §2

[6] = tested on: barnyardgrass (Echinochloa crus-galli); test: Test A pre-/postemergence plant response
Description: as §1, §2

[7] = tested on: wheat (Triticum aestivum); test: Test A pre-/postemergence plant response
Description: as §1, §2

[8] = tested on: pigweed (Amaranthus retroflexus); test: Test A pre-/postemergence plant response
Description: as §1, §2

[9] = tested on: ducksalad (Heteranthera limosa); test: Test B flooded paddy test; conditions: for Plant response rating, Flood, Ducksalad: 250 g ai/ha, flooded paddy test, visual rating on 0 to 100 scale (0 no effect, 100 complete control) after 13 to 15 days; for Plant response rating, Ducksalad: Flood (flooded paddy test), 13 to 15 days; for Ducksalad plant response rating: Flood, 31 g ai/ha, scale 0 to 100 (0 no effect, 100 complete control)
Description: (§3) Plant species in the flooded paddy test consisted of rice (Oryza sativa), umbrella sedge (Cyperus difformis), ducksalad (Heteranthera limosa) and barnyardgrass (Echinochloa crus-galli) grown to the 2-leaf stage for testing. At the time of treatment, test pots were flooded with water to 3 cm above the soil surface, treated by application of test compounds directly to the paddy water, and then maintained at that water depth for the duration of the test.
(§4) Treated plants and controls were maintained in a greenhouse for 13 to 15 days, after which time all treated plants were visually evaluated and compared to controls. Plant response ratings, summarized in Table B, are based on a scale of 0 to 100 where 0 is no effect and 100 is complete control. A dash (-) response means no test result.

[10] = tested on: rice (Oryza sativa); test: Test B flooded paddy test; conditions: for Plant response rating, Flood, Rice: 250 g ai/ha, flooded paddy test, visual rating on 0 to 100 scale (0 no effect, 100 complete control) after 13 to 15 days; for Plant response rating, Rice: Flood (flooded paddy test), 13 to 15 days; for Rice plant response rating: Flood, 31 g ai/ha, scale 0 to 100 (0 no effect, 100 complete control)
Description: as §3, §4

[11] = tested on: barnyardgrass (Echinochloa crus-galli); test: Test B flooded paddy test; conditions: for Plant response rating, Flood, Barnyardgrass: 250 g ai/ha, flooded paddy test, visual rating on 0 to 100 scale (0 no effect, 100 complete control) after 13 to 15 days; for Plant response rating, Barnyardgrass: Flood (flooded paddy test), 13 to 15 days; for Barnyardgrass plant response rating: Flood, 31 g ai/ha, scale 0 to 100 (0 no effect, 100 complete control)
Description: as §3, §4

[12] = tested on: umbrella sedge (Cyperus difformis); test: Test B flooded paddy test; conditions: for Plant response rating, Flood, Sedge, Umbrella: 250 g ai/ha, flooded paddy test, visual rating on 0 to 100 scale (0 no effect, 100 complete control) after 13 to 15 days; for Plant response rating, Sedge, Umbrella: Flood (flooded paddy test), 13 to 15 days; for Sedge, Umbrella plant response rating: Flood, 31 g ai/ha, scale 0 to 100 (0 no effect, 100 complete control)
Description: as §3, §4

[13] = Postemergence, 125 g ai/ha, 0 to 100 scale where 0 is no effect and 100 is complete control
[14] = Postemergence, 500 g ai/ha, 0 to 100 scale, 0 = no effect, 100 = complete control, approx. ten days
[15] = Preemergence, 125 g ai/ha, 0 to 100 scale, 0 = no effect, 100 = complete control
[16] = Preemergence, 500 g ai/ha, visual injury, 0 to 100 scale (0 no effect, 100 complete control), approx. ten days
[17] = Preemergence, 500 g ai/ha, 0 to 100 scale, 0 = no effect, 100 = complete control
[18] = 62 g ai/ha, scale of 0 to 100 where 0 is no effect and 100 is complete control
[19] = 125 g ai/ha, scale 0 to 100, 0 is no effect, 100 is complete control

Cc1ccc(Cl)cc1-n1c(-c2cccc(Br)c2)ncc(C(=O)C2=C(O)CCCC2=O)c1=O [Compound 144]
Plant response rating, Crabgrass, Large [1, 13]: 50
Plant response rating, Crabgrass, Large [1, 14]: 90
Plant response rating, Crabgrass, Large [1, 15]: 10
Plant response rating, Crabgrass, Large [1, 16]: 30
Plant response rating, Velvetleaf [2, 13]: 100
Plant response rating, Velvetleaf [2, 14]: 100
Plant response rating, Velvetleaf [2, 15]: 20
Plant response rating, Velvetleaf [2, 17]: 70
Plant response rating, Morningglory [3, 13]: 30
Plant response rating, Morningglory [3, 14]: 70
Plant response rating, Morningglory [3, 15]: 0
Plant response rating, Morningglory [3, 16]: 10
Plant response rating, Corn [4, 13]: 0
Plant response rating, Corn [4, 14]: 30
Plant response rating, Corn [4, 15]: 0
Plant response rating, Corn [4, 16]: 0
Plant response rating, Foxtail, Giant [5, 13]: 40
Plant response rating, Foxtail, Giant [5, 14]: 90
Plant response rating, Foxtail, Giant [5, 15]: 0
Plant response rating, Foxtail, Giant [5, 16]: 10
Plant response rating, Barnyardgrass [6, 13]: 70
Plant response rating, Barnyardgrass [6, 14]: 100
Plant response rating, Barnyardgrass [6, 15]: 0
Plant response rating, Barnyardgrass [6, 16]: 20
Plant response rating, Wheat [7, 13]: 0
Plant response rating, Wheat [7, 14]: 0
Plant response rating, Wheat [7, 15]: 0
Plant response rating, Wheat [7, 17]: 0
Plant response rating, Pigweed [8, 13]: 80
Plant response rating, Pigweed [8, 14]: 90
Plant response rating, Pigweed [8, 15]: 0
Plant response rating, Pigweed [8, 16]: 90
Plant response rating, Flood, Ducksalad [9]: 100
Plant response rating, Ducksalad [9, 18]: 60
Plant response rating, Ducksalad [9, 19]: 75
Ducksalad plant response rating [9]: 50
Plant response rating, Flood, Rice [10]: 25
Plant response rating, Rice [10, 18]: 20
Plant response rating, Rice [10, 19]: 20
Rice plant response rating [10]: 15
Plant response rating, Flood, Barnyardgrass [11]: 20
Plant response rating, Barnyardgrass [11, 18]: 0
Plant response rating, Barnyardgrass [11, 19]: 0
Barnyardgrass plant response rating [11]: 0
Plant response rating, Flood, Sedge, Umbrella [12]: 100
Plant response rating, Sedge, Umbrella [12, 18]: 65
Plant response rating, Sedge, Umbrella [12, 19]: 95
Sedge, Umbrella plant response rating [12]: 50

CCCc1ncc(C(=O)C2=C(O)CCCC2=O)c(=O)n1Cc1cccc(OC(F)(F)F)c1 [Compound 105]
Plant response rating, Crabgrass, Large [1, 13]: 20
Plant response rating, Crabgrass, Large [1, 14]: 70
Plant response rating, Crabgrass, Large [1, 15]: 30
Plant response rating, Crabgrass, Large [1, 16]: 50
Plant response rating, Velvetleaf [2, 13]: 100
Plant response rating, Velvetleaf [2, 14]: 100
Plant response rating, Velvetleaf [2, 15]: 0
Plant response rating, Velvetleaf [2, 16]: 70
Plant response rating, Morningglory [3, 13]: 10
Plant response rating, Morningglory [3, 14]: 80
Plant response rating, Morningglory [3, 15]: 0
Plant response rating, Corn [4, 13]: 0
Plant response rating, Corn [4, 14]: 10
Plant response rating, Corn [4, 15]: 0
Plant response rating, Corn [4, 16]: 0
Plant response rating, Foxtail, Giant [5, 13]: 0
Plant response rating, Foxtail, Giant [5, 14]: 20
Plant response rating, Foxtail, Giant [5, 15]: 30
Plant response rating, Foxtail, Giant [5, 16]: 50
Plant response rating, Barnyardgrass [6, 13]: 20
Plant response rating, Barnyardgrass [6, 14]: 50
Plant response rating, Barnyardgrass [6, 15]: 0
Plant response rating, Barnyardgrass [6, 16]: 0
Plant response rating, Wheat [7, 13]: 0
Plant response rating, Wheat [7, 14]: 0
Plant response rating, Wheat [7, 15]: 0
Plant response rating, Wheat [7, 16]: 0
Plant response rating, Pigweed [8, 13]: 90
Plant response rating, Pigweed [8, 14]: 100
Plant response rating, Pigweed [8, 15]: 80
Plant response rating, Pigweed [8, 16]: 90
Plant response rating, Flood, Ducksalad [9]: 0
Plant response rating, Ducksalad [9, 18]: 0
Plant response rating, Ducksalad [9, 19]: 0
Ducksalad plant response rating [9]: 0
Plant response rating, Flood, Rice [10]: 0
Plant response rating, Rice [10, 18]: 0
Plant response rating, Rice [10, 19]: 0
Rice plant response rating [10]: 0
Plant response rating, Flood, Barnyardgrass [11]: 0
Plant response rating, Barnyardgrass [11, 18]: 0
Plant response rating, Barnyardgrass [11, 19]: 0
Barnyardgrass plant response rating [11]: 0
Plant response rating, Flood, Sedge, Umbrella [12]: 0
Plant response rating, Sedge, Umbrella [12, 18]: 0
Plant response rating, Sedge, Umbrella [12, 19]: 0
Sedge, Umbrella plant response rating [12]: 0
